Assay results published in the NIST ThermoML archive (doi:10.1016/j.jct.2017.08.004).

Test: molar heat capacity at constant pressure
Settings: 101.33 kPa

OC[C@H](O)C(O)[C@@H](O)CO [L-(-)-arabitol]
molar heat capacity at constant pressure [J/K/mol]
Settings | Small sample (50 mg) DSC | relaxation calorimetry
244.15 K, Crystal | 168.75 | –
245.15 K, Crystal | 169.35 | –
246.15 K, Crystal | 169.88 | –
247.15 K, Crystal | 170.55 | –
248.15 K, Crystal | 171.06 | –
249.15 K, Crystal | 171.85 | –
250 K, Crystal | – | 173.24
250.15 K, Crystal | 172.59 | –
251.15 K, Crystal | 173.21 | –
251.96 K, Crystal | – | 174.6
252.15 K, Crystal | 173.86 | –
253.15 K, Crystal | 174.57 | –
254.15 K, Crystal | 175.18 | –
255.15 K, Crystal | 176.03 | –
256.15 K, Crystal | 176.9 | –
257.15 K, Crystal | 177.61 | –
258.15 K, Crystal | 178.4 | –
259.15 K, Crystal | 179.26 | –
260 K, Crystal | – | 179.82
260.15 K, Crystal | 180.04 | –
261.15 K, Crystal | 180.97 | –
262.07 K, Crystal | – | 180.97
262.15 K, Crystal | 181.78 | –
263.15 K, Crystal | 182.59 | –
264.15 K, Crystal | 183.52 | –
265.15 K, Crystal | 184.23 | –
266.15 K, Crystal | 184.83 | –
267.15 K, Crystal | 185.69 | –
268.15 K, Crystal | 186.57 | –
269.15 K, Crystal | 187.58 | –
270 K, Crystal | – | 186.56
270.15 K, Crystal | 188.37 | –
271.15 K, Crystal | 189.06 | –
272.13 K, Crystal | – | 188.16
272.15 K, Crystal | 189.78 | –
273.15 K, Crystal | 190.61 | 188.71
274.15 K, Crystal | 191.19 | –
275.15 K, Crystal | 191.83 | –
276.15 K, Crystal | 192.48 | –
277.15 K, Crystal | 193.16 | –
278.15 K, Crystal | 193.84 | –
279.15 K, Crystal | 194.6 | –
280 K, Crystal | – | 193.46
280.15 K, Crystal | 195.16 | –
281.15 K, Crystal | 195.85 | –
282.15 K, Crystal | 196.47 | –
282.16 K, Crystal | – | 194.74
283.15 K, Crystal | 197.03 | –
284.15 K, Crystal | 197.67 | –
285.15 K, Crystal | 198.35 | –
286.15 K, Crystal | 198.9 | –
287.15 K, Crystal | 199.37 | –
288.15 K, Crystal | 200.05 | –
289.15 K, Crystal | 200.75 | –
290 K, Crystal | – | 200.53
290.15 K, Crystal | 201.49 | –
291.15 K, Crystal | 202.11 | –
292.15 K, Crystal | 202.64 | –
292.27 K, Crystal | – | 201.73
293.15 K, Crystal | 203.3 | –
294.15 K, Crystal | 203.94 | –
295.15 K, Crystal | 204.77 | –
296.15 K, Crystal | 205.37 | –
297.15 K, Crystal | 206.12 | –
298.15 K, Crystal | 206.77 | 206.44
299.15 K, Crystal | 207.42 | –
300 K, Crystal | – | 207.8
300.15 K, Crystal | 208.27 | –
301.15 K, Crystal | 209.11 | –
302.15 K, Crystal | 209.85 | –
302.3 K, Crystal | – | 209.95
303.15 K, Crystal | 210.71 | –
304.15 K, Crystal | 211.4 | –
305 K, Crystal | 212.36 | –
305.15 K, Crystal | 212.38 | –
306.15 K, Crystal | 213.15 | –
307.15 K, Crystal | 214.11 | –
308.15 K, Crystal | 215.16 | –
309.15 K, Crystal | 216.11 | –
310 K, Crystal | 217.12 | –
310.15 K, Crystal | 217.05 | –
311.15 K, Crystal | 218.22 | –
312.15 K, Crystal | 219.18 | –
313.15 K, Crystal | 220.1 | –
314.15 K, Crystal | 221.04 | –
315 K, Crystal | 221.96 | –
315.15 K, Crystal | 222.13 | –
316.15 K, Crystal | 223.18 | –
317.15 K, Crystal | 224.21 | –
318.15 K, Crystal | 225.16 | –
319.15 K, Crystal | 226.14 | –
320 K, Crystal | 226.85 | –
320.15 K, Crystal | 227.12 | –
321.15 K, Crystal | 228.27 | –
322.15 K, Crystal | 229.22 | –
323.15 K, Crystal | 230.47 | –
324.15 K, Crystal | 231.33 | –
325 K, Crystal | 231.9 | –
325.15 K, Crystal | 232.46 | –
326.15 K, Crystal | 233.49 | –
327.15 K, Crystal | 234.58 | –
328.15 K, Crystal | 235.6 | –
329.15 K, Crystal | 236.61 | –
330 K, Crystal | 237.4 | –
330.15 K, Crystal | 237.74 | –
331.15 K, Crystal | 238.74 | –
332.15 K, Crystal | 239.92 | –
333.15 K, Crystal | 241.19 | –
335 K, Crystal | 243.8 | –
340 K, Crystal | 251.69 | –
345 K, Crystal | 261.85 | –
387.05 K, Liquid | 440.32 | –
387.15 K, Liquid | 440.19 | –
388.15 K, Liquid | 440.32 | –
389.15 K, Liquid | 440.39 | –
390 K, Liquid | 440.74 | –
390.15 K, Liquid | 440.65 | –
391.15 K, Liquid | 440.67 | –
392.15 K, Liquid | 440.92 | –
393.15 K, Liquid | 441.37 | –
394.15 K, Liquid | 441.72 | –
395 K, Liquid | 442.06 | –
395.15 K, Liquid | 441.9 | –
396.15 K, Liquid | 442.46 | –
397.15 K, Liquid | 443.18 | –
398.15 K, Liquid | 443.38 | –
399.15 K, Liquid | 443.7 | –
400 K, Liquid | 443.76 | –
400.15 K, Liquid | 444.18 | –
401.15 K, Liquid | 444.55 | –
402.15 K, Liquid | 444.8 | –
403.15 K, Liquid | 445.3 | –
404.15 K, Liquid | 445.48 | –
405 K, Liquid | 445.85 | –
405.15 K, Liquid | 445.82 | –
406.15 K, Liquid | 446.12 | –
407.15 K, Liquid | 446.57 | –
408.15 K, Liquid | 447.22 | –
409.15 K, Liquid | 447.57 | –
410 K, Liquid | 448.32 | –
410.15 K, Liquid | 448.06 | –
411.15 K, Liquid | 448.75 | –
412.15 K, Liquid | 449.48 | –
413.15 K, Liquid | 450.17 | –
414.15 K, Liquid | 450.82 | –
415 K, Liquid | 451.18 | –
415.15 K, Liquid | 451.25 | –
416.15 K, Liquid | 451.74 | –
417.15 K, Liquid | 452.58 | –
418.15 K, Liquid | 453.6 | –
